“And” between values parts separate entries of the source, which are not always exact repeats. Identical values can stand only once. Like-named read-outs stand apart in the source and are kept apart here. Marks after values point to notes of the source that are not given here.
What was measured:
[1] = in situ brain perfusion in rodents, published permeability multiplied by VSA 150 cm^2/g, cited from earlier work
in vitro [2] = conditions: human
in vitro [3] = conditions: human, Papp, Triple
[4] = unbound fraction in brain, cited from earlier work
[5] = test system: hCMEC/D3 mono-culture BBB model; test: In vitro BBB permeability study (Papp), hCMEC/D3 mono-culture BBB model; conditions: for PS: PS worked out from mean Papp
[6] = test system: triple co-culture BBB model (hCMEC/D3, U251 and SH-SY5Y cells); test: In vitro BBB permeability study (Papp), triple co-culture BBB model; conditions: Triple co-culture BBB model; for PS: PS worked out from mean Papp
[7] = test system: hCMEC/D3 mono-culture BBB model; conditions: human
[8] = In vitro BBB permeability study (Papp), hCMEC/D3 mono-culture BBB model; conditions: human
[9] = In vitro BBB permeability study (Papp), triple co-culture BBB model; conditions: human

With `NCC1(CC(=O)O)CCCCC1` [Gabapentin] as the compound, how does the PSObs ([1]; ref Summerfield et al., 2007) read?
Its PSObs is 162.90^† μl/min/g.

What about the Papp A→B (in vitro [2]; Papp Mean, Mono-culture BBB Model, mean of 4 replicates) of the same compound?
Its Papp A→B is 16.7 ×10⁻⁶ cm/s.

And the Papp A→B (in vitro [3]; apical to basolateral, 30 min, 37°C, day 6, mean ± SEM, four biological replicates)?
Its Papp A→B is 8.78 ± 0.23 ×10⁻⁶ cm/s.

And the “fu, brain” value ([4]; ref Summerfield et al., 2007)?
The value was 0.782^†.

What about the PS ([5]; Mono-culture BBB Model) of the same compound?
The PS was 192.77 µL/min/g.

And the PS [6]?
The PS was 101.05 µL/min/g.

And the “PSPre, Mono” value [7]?
Its value is 192.77 µL/min/g.

What does the source list for `COc1ccc(C(CN(C)C)C2(O)CCCCC2)cc1` (centres unmarked) [Venlafaxine]?
fu, brain ([4]; ref Esaki et al., 2019): 0.205^*; Papp A→B at 30 min ([8]; Papp (individual replicate), Mono-culture BBB Model, single replicate values (4 per drug)): 10.3 ×10⁻⁶ cm/s; Papp A→B at 30 min ([8]; Papp, Mono, apical to basolateral, 30 min, 37°C, day 6, mean ± SEM, four biological replicates): 9.58 ± 0.28 ×10⁻⁶ cm/s; PS ([5]; Mono-culture BBB Model): 420.60 µL/min/g; PSPre, Mono ([5]; PSPre = Papp×60×VSA×1000/fu,brain, VSA 150 cm^2/g, from Papp, Mono): 420.60 µL/min/g; Papp A→B ([5]; read-out: Papp (individual replicate), Mono-culture BBB Model, single replicate values (4 per drug)): 8.74 ×10⁻⁶ cm/s and 9.52 ×10⁻⁶ cm/s and 9.75 ×10⁻⁶ cm/s; Papp A→B at 30 min ([9]; Papp (individual replicate), Triple co-culture BBB model, single replicate values (4 per drug)): 7.48 ×10⁻⁶ cm/s; Papp A→B at 30 min ([9]; Papp, Triple, apical to basolateral, 30 min, 37°C, day 6, mean ± SEM, four biological replicates): 8.25 ± 0.36 ×10⁻⁶ cm/s; PS [6]: 362.02 µL/min/g; Papp A→B ([6]; read-out: Papp (individual replicate), single replicate values (4 per drug)): 8.5 ×10⁻⁶ cm/s and 9.29 ×10⁻⁶ cm/s and 7.72 ×10⁻⁶ cm/s

What does the source list for `CNCCC(Oc1ccc(C(F)(F)F)cc1)c1ccccc1` (centres unmarked) [Fluoxetine]?
fu, brain ([4]; ref Liu et al., 2005): 0.00094; fu, brain ([4]; ref Maurer et al., 2005): 0.0023; fu, brain ([4]; ref Summerfield et al., 2007): 0.004^†

Which PSObs ([1]; ref Di Marco et al., 2019) does the source give for `COc1cc2nc(N3CCN(C(=O)c4ccco4)CC3)nc(N)c2cc1OC` [Prazosin] here?
The PSObs was 169.20^¶ ¶ μl/min/g.

And the Papp A→B at 30 min (in vitro [2]; Papp (individual replicate))?
The Papp A→B at 30 min was 4.56 ×10⁻⁶ cm/s.

For `Cc1nc2n(c(=O)c1CCN1CCC(c3noc4cc(F)ccc34)CC1)CCCC2` [Risperidone], which PSObs ([1]; ref Summerfield et al., 2007) is on record?
The PSObs was 849.60^† μl/min/g.

Which results are given for `Cc1cc2c(s1)Nc1ccccc1N=C2N1CCN(C)CC1` [Olanzapine]?
PSObs ([1]; ref Summerfield et al., 2007): 2279.70^† μl/min/g; fu, brain ([4]; ref Summerfield et al., 2007): 0.034^†

For `CC(NC(C)(C)C)C(=O)c1cccc(Cl)c1` (centres unmarked) [Bupropion], which Papp A→B at 30 min (in vitro [2]; Papp, Mono) is on record?
The Papp A→B at 30 min was 15.2 ± 0.2 ×10⁻⁶ cm/s.

What about the Papp A→B at 30 min (in vitro [3]) of the same compound?
The Papp A→B at 30 min was 11.3 ± 0.44 ×10⁻⁶ cm/s.

What about the “fu, brain” value ([4]; ref Bhattacharya et al., 2021) of the same compound?
Its value is 0.12^§.

And the “PSPre, Mono” value [7]?
The value was 1139.58 µL/min/g.
